Test [1] has as its system mouse bone marrow-derived macrophages. The test is described as follows: TLR3- and TLR4-mediated necroptosis (poly(I:C)/z-VAD, LPS/z-VAD). In kind it is cell-based. Particulars: mouse BMDM; PK6 10 μM, PK68 100 nM; 24–30 h. The text has this:
In addition to TNF-induced necroptosis, it is known that TLR3 or TLR4 activation can also trigger necroptosis. We further evaluated the effects of PK6 and PK68 on TLR3- and TLR4-mediated necroptosis induced by poly(I:C)/z-VAD and LPS/z-VAD, respectively. […] To investigate the molecular mechanism of PK series-mediated necroptosis inhibition, we examined the effects of these compounds on the major steps of necroptotic signaling, including activation of RIPK1, RIPK3, and MLKL. […] It has been shown previously that RIPK3 activation leads to the formation of RIPK3 puncta during necroptosis.
Fig. 3 PK6 and PK68 block cellular activation of RIPK1, RIPK3, and MLKL upon necroptotic stimuli. a, b Bone marrow-derived macrophages from C57BL/6 mice or rat were pretreated with DMSO, PK6(10 μM), or PK68 (100 nM) for 1 h and subsequently treated with indicated stimuli for 24–30 h. Cell viability was determined by measuring ATP levels. L, LPS (20 ng/ml); P, poly(I:C) (50 μg/ml); S (100 nM); Z (10 μM). […] The distribution of RIPK3 was detected by immunofluorescence. *P < 0.05. **P < 0.01. ***P < 0.001 […]
(§1) The cell viability was analyzed by using the CellTiter-Glo Luminescent Cell Viability Assay kit following the manufacturer’s instructions (Promega). Luminescence was measured with SpectraMax i3x (Molecular Devices).

Another test has as its system NIH3T3-RIPK3 cells. The test is described as follows: RIPK3 dimerization-induced necroptosis (AP20187). Particulars: AP20187 100 nM, 24 h. In kind it is cell-based, mouse. On the procedure: Recombinant proteins were incubated with PK6 and PK68 as indicated. […] NIH3T3-RIPK3 cells were pretreated with indicated compounds for 1 h and subsequently treated with T (40 ng/ml)/S (100 nM)/Z (20 μM) or AP20187 (100 nM) for 24 h. Cell viability was determined by measuring ATP levels. e PK6 and PK68 have no effect on MLKL dimerization-induced cell death in HeLa-MLKL (1–190) cells that stably express MLKL (1–190aa) fused to DmrB. HeLa-MLKL (1–190) cells were pretreated with indicated compounds for 1 h and subsequently treated with AP20187 (100 nM) for 24 h. Cell viability was determined by measuring ATP levels.
Further, we evaluated the selectivity of PK68 against a panel of 369 kinases provided by Reaction Biology (at 1000 nM). […] In addition, we followed on some of the active “hits” from the kinome scan. PK68 was tested against TNIK and TRKA by a reputable CRO company. […] RIPK1 is known to mediate NF-κB activation independently of its kinase activity. […] It has been shown that homodimerization of RIPK3 or MLKL induced by the dimerizer leads to necroptosis bypassing the upstream signals[10],[37]. […] This dimerized RIPK3-induced necroptosis was blocked by RIPK3 inhibitor GSK873 but was not blocked by the RIPK1 inhibitor necrostatin-1. […] (Fig. 4e).
as §1

For `CC(=O)Nc1nc2ccc(-c3cnc(C)c(NC(=O)OC4CCCCC4)c3)cc2s1` [PK68, cyclohexyl (5-(2-acetamidobenzo[d]thiazol-6-yl)-2-methylpyridin-3-yl)carbamate], the “TLR3- and TLR4-mediated necroptosis” value in test [1] was “significantly blocked”. The RIPK3 dimerization-induced necroptosis entry in the test with NIH3T3-RIPK3 cells was “neither PK6 nor PK68 blocked”.
Regarding `CC(=O)Nc1nc2ccc(-c3cnc(Cl)c(NC(=O)Cc4ccccc4)c3)cc2s1` [PK6, N-(5-(2-acetamidobenzo[d]thiazol-6-yl)-2-chloropyridin-3-yl)-2-phenylacetamide], the “TLR3- and TLR4-mediated necroptosis” value in test [1] is listed as “significantly blocked”. The RIPK3 dimerization-induced necroptosis result in the test on NIH3T3-RIPK3 cells is reported as “neither PK6 nor PK68 blocked”.

Values taken from publication PMC6591251, “Discovery of potent necroptosis inhibitors targeting RIPK1 kinase activity for the treatment of inflammatory disorder and cancer metastasis” (Cell Death & Disease, 2019).
